Data: publication PMC5207538, “Substrates and Inhibitors of SAMHD1” (PLoS ONE, 2017)

Biological target: T1, SAMHD1 (Homo sapiens, UniProt Q9Y3Z3)
T1 construct: recombinant SAMHD1 with N-terminal GST tag
Test: TLC-based [γ-32P]-dTTP triphosphohydrolase kinetics; HPLC dGTP hydrolysis assay
Assay type: biochemical

T1 sequence (Q9Y3Z3 whole entry): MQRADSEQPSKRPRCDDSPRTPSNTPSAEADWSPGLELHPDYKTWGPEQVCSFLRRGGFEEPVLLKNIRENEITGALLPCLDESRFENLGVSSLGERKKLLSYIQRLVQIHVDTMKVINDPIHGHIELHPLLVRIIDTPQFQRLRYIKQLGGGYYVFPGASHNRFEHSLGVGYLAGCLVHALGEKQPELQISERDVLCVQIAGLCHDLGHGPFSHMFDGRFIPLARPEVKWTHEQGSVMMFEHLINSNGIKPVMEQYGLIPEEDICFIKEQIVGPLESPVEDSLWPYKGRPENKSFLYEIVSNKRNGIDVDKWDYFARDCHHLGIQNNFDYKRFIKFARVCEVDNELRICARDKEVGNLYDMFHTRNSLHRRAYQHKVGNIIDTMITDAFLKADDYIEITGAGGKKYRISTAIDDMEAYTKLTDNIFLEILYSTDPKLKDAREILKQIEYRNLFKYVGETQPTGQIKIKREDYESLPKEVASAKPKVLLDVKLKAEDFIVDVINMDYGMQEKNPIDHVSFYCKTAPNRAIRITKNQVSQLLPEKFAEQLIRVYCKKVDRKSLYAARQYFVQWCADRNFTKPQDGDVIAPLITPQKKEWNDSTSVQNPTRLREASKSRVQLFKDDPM

Ki: 256 ± 70 µM
SMILES: C[C@H]1[C@H](O)[C@@H](COP(=O)(O)OP(=O)(O)OP(=O)(O)O)O[C@H]1n1ccc(=O)[nH]c1=O [SMDU-TP]
